# Read-outs that look alike come from different tables or passages of the source.
# Columns and labels:
# Assay type in all cases: cell-based
# Bacillus subtilis DSM 10 = experiment: Serial dilution assay, MIC; conditions: for MIC: DSM10, - = no inhibition was observed, read-out: Minimum inhibitory concentration (MIC)
# Protocol: (§1) Figure S3. ECD spectra of 7 .
# (§2) Eval uation of anti mi cr obi al acti vity.
# (§3) To assess the antimicrobial activity of each compound, a serial dilution assay to ascertain their minimum inhibitory concentration (MIC) against sever al yeast, fungal and bacterial strains was c arried out in 96-well micr otiter plates, as previously described by Har ms et al.
# (§4) Table S1. Minimum inhibitory concentration (MIC in µg/mL) for yeast, bacterial and fungal strains.
# (§5) The serial dilution assay was performed using 1 mg/mL stock solutions of 1 -8, 13, 15 and 16. As positive control the antimicrobials [ O] Oxytetracyclin , [ G] Gentamycin and [ K] Kanamycin wer e used for bacteria and [N] Nystatin was used for filamentous fungi and yeast.
# (§6) (DSM 70572), Pichia anomala (DSM 6766), Candida albicans (DSM 1665), Escherichia coli (DSM 1116), Mycobacterium smegmatis (ATCC 700084), Pseudomonas aeruginosa (DSM PA14), Chromobacterium violaceum (DSM 30191) and Acinetobacter baumannii (DSM 30008).
# (§7) (1 picture or pasted object on this page, not shown here)
# [1] = test system: Staphylococcus aureus DSM 346; experiment: Serial dilution assay, MIC; conditions: for MIC: Staphylococcus aureus, DSM346, read-out: Minimum inhibitory concentration (MIC)
# Protocol: as §1, §2, §3, §4, §5, §6, §7
# [2] = test system: cervix carcinoma cell line KB3.1; experiment: In vitro cytotoxicity assay; conditions: Homo sapiens, KB 3-1, - = no activity, read-out: Half inhibitory concentration (IC50)
# Protocol: (§8) Eval uation of cytot ox icity.
# (§9) Assessment of in vitro cytotoxicity was performed in 96-well plates, as previously published by Harms et al against the
# (§10) mouse fibroblast cell line L929 and the cervix car cinoma cell line KB3.1. […]
# (§11) Table S2. Half inhibitory concentration (IC50 i n µM ) .
# (§12) The cytotoxicity assay was performed using 1 mg/mL stock solutions of 1 -8 , 13 , 15 and 16. Epo thilon B was tested as positive
# Mucor hiemalis DSM 2656 = experiment: Serial dilution assay, MIC
# Protocol: as §1, §2, §3, §4, §5, §6, §7
# [3] = test system: Rhodotorula glutinis DSM 10134; experiment: Serial dilution assay, MIC; conditions: for MIC: DSM10134, - = no inhibition was observed, read-out: Minimum inhibitory concentration (MIC)
# Protocol: as §1, §2, §3, §4, §5, §6, §7
# [4] = test system: mouse fibroblast cell line L929; experiment: In vitro cytotoxicity assay; conditions: - = no activity, read-out: Half inhibitory concentration (IC50)
# Protocol: as §8, §9, §10, §11, §12
# [5] = test system: human breast carcinoma cell line MCF-7; experiment: Extended cytotoxicity assay; conditions: MCF7, read-out: Half inhibitory concentration (IC50)
# Protocol: as §8
# (§13) Assessment of in vitro cytotoxicity was performed in 96-well plates, as previously published by Harms et al against the mouse fibroblast cell line L929 and the cervix car cinoma cell line KB3.1. Heimiomycin D (5 ) was additionally tested against human breast carcinoma cell line MCF-7, human lung carcinoma cell line A549, human ovarian carcinoma cell line SKOV -3, human prostate carcinoma cell line P C-3 and human epidermoid carcinoma cell line A431.
# (§14) Table S2. Half inhibitory concentration (IC50 i n µM ) . […]
# (§15) Table S3. Half inhibitory concentration (IC50 in µM) of 5 .
# (§16) The extended cytotoxicity assay against further cell lines was performed using a 1 mg/mL stock solution of 5 . Epothilon B was tested as positive control.
# (§17) Hei mio my cin D (5) Epo B
# [6] = test system: human epidermoid carcinoma cell line A431; experiment: Extended cytotoxicity assay; conditions: read-out: Half inhibitory concentration (IC50)
# Protocol: as §8, §13, §14, §15, §16, §17
# [7] = test system: human ovarian carcinoma cell line SKOV-3; experiment: Extended cytotoxicity assay; conditions: SK-OV-3, read-out: Half inhibitory concentration (IC50)
# Protocol: as §8, §13, §14, §15, §16, §17
# [8] = test system: human lung carcinoma cell line A549; experiment: Extended cytotoxicity assay; conditions: read-out: Half inhibitory concentration (IC50)
# Protocol: as §8, §13, §11
# (§18) The cytotoxicity assay was performed using 1 mg/mL stock solutions of 1 -8 , 13 , 15 and 16. Epo thilon B was tested as positive […]
# (§19) IC50 in µM; - no activity
# as §15, §16, §17
# [9] = test system: human prostate carcinoma cell line PC-3; experiment: Extended cytotoxicity assay; conditions: read-out: Half inhibitory concentration (IC50)
# Protocol: as §8, §13, §11, §18, §19, §15, §16, §17
Structure (SMILES),MIC (Bacillus subtilis DSM 10) [µg/mL],MIC [1] [µg/mL],IC50 [2] [µM],IC50 [4] [µM],further results
"CC(C)[C@H]1CC[C@H](C)c2c(O)c(O)c(C=O)c(C3=C(O)C(=O)C4=C(OCc5c(O)c(O)c6c(c54)[C@@H](C(C)C)CC[C@@H]6C)C3=O)c21 [compound 2, Bis-heimiomycin B]",16.6,33.3,30.8,,
"C[C@@H]1[C@H](O)[C@@H](C)/C=C/C=C/CC/C=C/C=C/C=C/C=C/C(O[C@H]2O[C@H](C)[C@@H](O)[C@H](N)[C@@H]2O)CC2O[C@](O)(CC(O)C(O)CCC(O)CC(O)CC(O)CC(=O)O[C@H]1C)CC(O)C2C(=O)O (stereo partly drawn) [Nystatin, reference compound]",,,,,Minimum inhibitory concentration (MIC) (Mucor hiemalis DSM 2656; - = no inhibition was observed): 8.3 µg/mL; Minimum inhibitory concentration (MIC) ([3]; - = no inhibition was observed): 4.2 µg/mL
"O=c1cc(O)cc(C2c3c(cc(/C=C/c4ccc(O)c(O)c4)oc3=O)OC2c2ccc(O)c(O)c2)o1 (stereo not drawn) [compound 16, hypholomin B]",33.3,,,,
"CC(C)[C@H]1CC[C@H](C)C2=C1C=C(C(=O)O)CC2 [compound 7, Heimiocalamene A]",66.6,66.6,85.5,,"MIC (Mucor hiemalis DSM 2656; DSM2656, - = no inhibition was observed, read-out: Minimum inhibitory concentration (MIC)): 33.3 µg/mL; MIC [3]: 66.6 µg/mL"
"CC1=C(O)C(=O)C(c2c(C=O)c(O)c(O)c3c2[C@@H](C(C)C)CC[C@@H]3C)=C(O)C1=O [compound 5, Heimiomycin D]",33.3,33.3,6.3,45,"IC50 [5]: 2.5 µM; IC50 ([6]; A431): 4.3 µM; IC50 ([6]; Homo sapiens, A-431, A431): 4.25 µM; IC50 [7]: 3 µM; IC50 [8]: 14.3 µM; IC50 [9]: 30 µM"
"CN(C)[C@@H]1C(=O)C(C(N)=O)=C(O)[C@@]2(O)C(=O)C3=C(O)c4c(O)cccc4[C@@](C)(O)[C@H]3[C@H](O)[C@@H]12 [Oxytetracyclin, reference compound]",,,,,"Minimum inhibitory concentration (MIC) (Bacillus subtilis DSM 10; - = no inhibition was observed): 8.3 µg/mL; Minimum inhibitory concentration (MIC) ([1]; Staphylococcus aureus DSM 346, - = no inhibition was observed): 0.83 µg/mL"
"CC(C)[C@H]1CC[C@H](C)c2c(O)c(O)c(C=O)c(C3=C(O)C(=O)C=C(O)C3=O)c21 [compound 6, Heimiomycin E]",16.6,66.6,,57,
"CC(C)[C@H]1CC[C@H](C)c2c(O)c(O)c(C=O)c(C3=C(O)C(=O)C(c4c(C=O)c(O)c(O)c5c4[C@@H](C(C)C)CC[C@@H]5C)=C(O)C3=O)c21 [compound 1, Bis-heimiomycin A]",33.3,,,,MIC [3]: 66.6 µg/mL
"Cc1c(O)c(O)c(C(C)C)c2c1CCC(C(=O)O)=C2 [compound 8, Heimiocalamene B]",66.6,,31.3,37.4,MIC [3]: 66.6 µg/mL
"CC(C)[C@H]1CC[C@H](C)c2c(O)c(O)c3c(c21)C1=C(OC3)C(=O)C2=C(OCc3c(O)c(O)c4c(c32)[C@@H](C(C)C)CC[C@@H]4C)C1=O [compound 4, Bis-heimiomycin D]",,,35,,
"O=c1cc(O)cc(/C=C/c2ccc(O)c(O)c2)o1 [compound 15, hispidin]",,,93.5,85.4,
"CC(C)[C@H]1CC[C@H](C)c2c(O)c(O)c(CO)c(C3=C(O)C(=O)C4=C(OCc5c(O)c(O)c6c(c54)[C@@H](C(C)C)CC[C@@H]6C)C3=O)c21 [compound 3, Bis-heimiomycin C]",16.6,33.3,27.5,32.4,
